Data taken from patent publication US20040097594A1 (priority 1998, published 2004).
Read-outs that look alike come from different tables or passages of the source.

Key:
HIV-1 (strain IIIB) = assay: microbe, parasite or virus in culture; format: cell-based; conditions: lower line of each compound's entry, read-out: IC50 (MT-4 cells)
HIV-1 protease = HIV-1 protease (Human immunodeficiency virus type 1 group M subtype B, UniProt P04585); assay: biochemical
[1] = Human immunodeficiency virus 1, 120 h, MT4 cells infected with HIV-1 strain IIIB, 5 days
[2] = HIV-1 protease, upper line of each compound's entry, read-out: Ki (enzyme)
[3] = Human immunodeficiency virus 1, IIIB, MT4, 120 h, […]

| Structure (SMILES) | IC50 (HIV-1 (strain IIIB); [1]) [nM] | Ki (HIV-1 protease; [2]) [nM] | Ki (HIV-1 protease) [nM] | IC50 (HIV-1 (strain IIIB); [3]) [nM] |
| --- | --- | --- | --- | --- |
| Nc1nc2ccc(S(=O)(=O)N(C[C@@H](O)[C@H](Cc3ccccc3)NC(=O)OC3COCOC3)OC3CCCC3)cc2s1 [Compound 125] | ≤ 100 | < 1 | – | – |
| CC(C)ON(C[C@@H](O)[C@H](Cc1ccccc1)NC(=O)O[C@H]1CO[C@H]2OCC[C@H]21)S(=O)(=O)c1cccc(N(C)C(=O)OC(C)(C)C)c1 [Compound 126] | > 1000 | > 100 | – | – |
| CNc1cccc(S(=O)(=O)N(C[C@@H](O)[C@H](Cc2ccccc2)NC(=O)O[C@H]2CO[C@H]3OCC[C@H]32)OC(C)C)c1 [Compound 127] | ≤ 100 | < 1 | – | – |
| CN(C(=O)OC(C)(C)C)c1cccc(S(=O)(=O)N(C[C@@H](O)[C@H](Cc2ccccc2)NC(=O)O[C@H]2CO[C@H]3OCC[C@H]32)OC2CCCC2)c1 [Compound 128] | > 1000 | > 100 | – | – |
| COC(=O)Nc1nc2cc(S(=O)(=O)N(C[C@@H](O)[C@H](Cc3ccccc3)NC(=O)OC(C)(C)C)OC3CCCC3)ccc2[nH]1 [Compound 130, tert-Butyl-N-((1S,2R)-1-benzyl-3-(cyclopentyloxy)(2-[(methoxycarbonyl)amino]benzimidazol-5-ylsulfonyl)amino-2-hydroxypropyl)carbamate] | ≤ 100 | < 1 | – | – |
| CC(C)(C)OC(=O)N[C@@H](Cc1ccccc1)[C@H](O)CN(OC1CCCC1)S(=O)(=O)c1ccc2[nH]c(=O)[nH]c2c1 [Compound 131, tert-Butyl-N-((1S,2R)-1-benzyl-3-(cyclopentyloxy)(2-oxybenzimidazol-5-ylsulfonyl)amino-2-hydroxypropyl)carbamate] | ≤ 100 | < 1 | – | – |
| COc1ccc(S(=O)(=O)N(C[C@@H](O)[C@H](Cc2ccccc2)NC(=O)OC2CO[C@H]3OCC[C@@H]23)OC2CCCCC2)cc1 (stereo partly drawn) [Compound 134, (3R,3aS,6aR)hexahydrofuro[2,3-b]furan-3-yl N-((1S,2R)-1-benzyl-3-(cyclohexyloxy)[(4-methoxyphenyl)sulfonyl]amino-2-hydroxypropyl)carbamate] | ≤ 100 | – | < 1 | – |
| O=C(N[C@@H](Cc1ccccc1)[C@H](O)CN(OC1CCCC1)S(=O)(=O)c1cccc(OCC(=O)N2CCOCC2)c1)O[C@H]1CO[C@H]2OCC[C@H]21 [Compound 135, (3R,3aS,6aR)hexahydrofuro[2,3-b]furan-3-yl N-[(1S,2R)-1-benzyl-3-((cyclopentyloxy)[3-(2-morpholino-2-oxoethoxy)phenyl]sulfonylamino)-2-hydroxypropyl]carbamate] | ≤ 100 | 1 to 10 | – | – |
| NC(=O)COc1cccc(S(=O)(=O)N(C[C@@H](O)[C@H](Cc2ccccc2)NC(=O)OC2CO[C@H]3OCC[C@@H]23)OC2CCCC2)c1 (stereo partly drawn) [Compound 136, (3R,3aS,6aR)hexahydrofuro[2,3-b]furan-3-yl N-(1S,2R)-3-[[3-(2-amino-2-oxoethoxy)phenyl]sulfonyl(cyclopentyloxy)amino]-1-benzyl-2-hydroxypropylcarbamate] | – | < 1 | – | ≤ 100 |
| CON(C)C(=O)COc1cccc(S(=O)(=O)N(C[C@@H](O)[C@H](Cc2ccccc2)NC(=O)OC2CO[C@H]3OCC[C@@H]23)OC2CCCC2)c1 (stereo partly drawn) [Compound 137, (3R,3aS,6aR)hexahydrofuro[2,3-b]furan-3-yl N-((1S,2R)-1-benzyl-3-(cyclopentyloxy)[(3-2-[methoxy(methyl)amino]-2-oxoethoxyphenyl)sulfonyl]amino-2-hydroxypropyl)carbamate] | ≤ 100 | < 1 | – | – |
| O=C(N[C@@H](Cc1ccccc1)[C@H](O)CN(OC1CCCC1)S(=O)(=O)c1ccc2c(c1)OCO2)OC1CO[C@H]2OCC[C@@H]12 (stereo partly drawn) [Compound 138, (3R,3aS,6aR)hexahydrofuro[2,3-b]furan-3-yl N-(1S,2R)-3-[(1,3-benzodioxol-5-ylsulfonyl)(cyclopentyloxy)amino)-1-benzyl-2-hydroxypropylcarbamate] | ≤ 100 | – | < 1 | – |
| O=C(N[C@@H](Cc1ccccc1)[C@H](O)CN(OC1CCCC1)S(=O)(=O)c1ccc2c(c1)OCCO2)OC1CO[C@H]2OCC[C@@H]12 (stereo partly drawn) [Compound 139, (3R,3aS,6aR)hexahydrofuro[2,3-b]furan-3-yl N-(1S,2R)-1-benzyl-3-[(cyclopentyloxy)(2,3-dihydro-1,4-benzodioxin-6-ylsulfonyl)amino]-2-hydroxypropylcarbamate] | ≤ 100 | – | < 1 | – |
| COc1ccc(S(=O)(=O)N(C[C@@H](O)[C@H](Cc2ccccc2)NC(=O)OC2CO[C@H]3OCC[C@@H]23)OC2CCCC2)cc1OC (stereo partly drawn) [Compound 140, (3R,3aS,6aR)hexahydrofuro[2,3-b]furan-3-yl N-((1S, 2R)-1-benzyl-3-(cyclopentyloxy)[(3,4-dimethoxyphenyl)sulfonyl]amino-2-hydroxypropyl)carbamate] | ≤ 100 | < 1 | – | – |
| CC(C)Oc1ccc(S(=O)(=O)N(C[C@@H](O)[C@H](Cc2ccccc2)NC(=O)OC2CO[C@H]3OCC[C@@H]23)OC2CCCC2)cc1 (stereo partly drawn) [Compound 141, (3R,3aS,6aR)hexahydrofuro[2,3-b]furan-3-yl N-((1S,2R)-1-benzyl-3-(cyclopentyloxy)[(4-isopropoxyphenyl)sulfonyl]amino-2-hydroxypropyl)carbamate] | – | < 1 | – | > 1000 |
| CC(C)Oc1cccc(S(=O)(=O)N(C[C@@H](O)[C@H](Cc2ccccc2)NC(=O)OC2CO[C@H]3OCC[C@@H]23)OC2CCCC2)c1 (stereo partly drawn) [Compound 142, (3R,3aS,6aR)hexahydrofuro[2,3-b]furan-3-yl N-((1S,2R)-1-benzyl-3-(cyclopentyloxy)[(3-isopropoxyphenyl)sulfonyl]amino-2-hydroxypropyl)carbamate] | – | < 1 | – | 100 to 500 |
| O=C(N[C@@H](Cc1ccccc1)[C@@H](CN(OC1CCCC1)S(=O)(=O)c1ccc2c(c1)OCO2)OP(=O)(O)O)O[C@H]1CO[C@H]2OCC[C@H]21 [Compound 143, (3R,3aS,6aR)hexahydrofuro[2,3-b]furan-3-yl N-[(1S,2R)-3-[(1,3-benzodioxol-5-ylsulfonyl)(cyclopentyloxy)amino]-1-benzyl-2-(phosphonooxy)propyl]carbamate] | ≤ 100 | < 1 | – | – |
| O=C(N[C@@H](Cc1ccccc1)[C@@H](CN(OC1CCCC1)S(=O)(=O)c1ccc2c(c1)OCCO2)OP(=O)(O)O)O[C@H]1CO[C@H]2OCC[C@H]21 [Compound 144, (3R,3aS,6aR)hexahydrofuro[2,3-b]furan-3-yl N-[(1S,2R)-1-benzyl-3-[(cyclopentyloxy)(2,3-dihydro-1,4-benzodioxin-6-ylsulfonyl)amino]-2-(phosphonooxy)propyl]carbamate] | ≤ 100 | – | < 1 | – |
| COc1ccc(S(=O)(=O)N(C[C@@H](O)[C@H](Cc2ccccc2)NC(=O)OC2CO[C@H]3OCC[C@@H]23)OCC(C)C)cc1 (stereo partly drawn) [Compound 145, (3R,3aS,6aR)hexahydrofuro[2,3-b]furan-3-yl N-((1S,2R)-1-benzyl-2-hydroxy-3-isobutoxy[(4-methoxyphenyl)sulfonyl]aminopropyl)carbamate] | ≤ 100 | – | < 1 | – |
| Nc1ccc(S(=O)(=O)N(C[C@@H](O)[C@H](Cc2ccccc2)NC(=O)O[C@H]2CO[C@H]3OCC[C@H]32)OC2CCOCC2)cc1 [Compound 146, (3R,3aS,6aR)hexahydrofuro[2,3-b]furan-3-yl 3-[[(4-aminophenyl)sulfonyl](tetrahydro-2H-pyran-4-yloxy)amino]-1-benzyl-2-hydroxypropylcarbamate] | ≤ 100 | < 1 | – | – |
| Nc1cccc(S(=O)(=O)N(C[C@@H](O)[C@H](Cc2ccccc2)NC(=O)O[C@H]2CO[C@H]3OCC[C@H]32)OC2CCOCC2)c1 [Compound 147, (3R,3aS,6aR)hexahydrofuro[2,3-b]furan-3-yl 3-[[(3-aminophenyl)sulfonyl](tetrahydro-2H-pyran-4-yloxy)amino]-1-benzyl-2-hydroxypropylcarbamate] | – | < 1 | – | ≤ 100 |
| O=C(N[C@@H](Cc1ccccc1)[C@H](O)CN(OC1CCOCC1)S(=O)(=O)c1cccc(O)c1)O[C@H]1CO[C@H]2OCC[C@H]21 [Compound 148, (3R,3aS,6aR)hexahydrofuro[2,3-b]furan-3-yl 1-benzyl-2-hydroxy-3-[[(3-hydroxyphenyl)sulfonyl](tetrahydro-2H-pyran-4-yloxy)amino]propylcarbamate] | ≤ 100 | < 1 | – | – |
| O=C(N[C@@H](Cc1ccccc1)[C@H](O)CN(OC1CCOCC1)S(=O)(=O)c1ccc(O)cc1)O[C@H]1CO[C@H]2OCC[C@H]21 [Compound 149, (3R,3aS,6aR)hexahydrofuro[2,3-b]furan-3-yl 1-benzyl-2-hydroxy-3-[[(4-hydroxyphenyl)sulfonyl](tetrahydro-2H-pyran-4-yloxy)amino]propylcarbamate] | ≤ 100 | < 1 | – | – |
| O=C(N[C@@H](Cc1ccccc1)[C@H](O)CN(OC1CCOCC1)S(=O)(=O)c1ccc2c(c1)OCCO2)O[C@H]1CO[C@H]2OCC[C@H]21 [Compound 150, (3R,3aS,6aR)hexahydrofuro[2,3-b]furan-3-yl 1-benzyl-3-[(2,3-dihydro-1,4-benzodioxin-6-ylsulfonyl)(tetrahydro-2H-pyran-4-yloxy)amino]-2-hydroxypropylcarbamate] | ≤ 100 | < 1 | – | – |
| O=C(N[C@@H](Cc1ccccc1)[C@H](O)CN(OC1CCOCC1)S(=O)(=O)c1ccc2c(c1)OCO2)O[C@H]1CO[C@H]2OCC[C@H]21 [Compound 151, (3R,3aS,6aR)hexahydrofuro[2,3-b]furan-3-yl 3-[(1,3-benzodioxol-5-ylsulfonyl)(tetrahydro-2H-pyran-4-yloxy)amino]-1-benzyl-2-hydroxypropylcarbamate] | – | < 1 | – | ≤ 100 |
| Nc1ccc(S(=O)(=O)N(C[C@@H](O)[C@H](Cc2ccccc2)NC(=O)O[C@H]2CO[C@H]3OCC[C@H]32)OC2CCCCC2)cc1 [Compound 153, (3R,3aS,6aR)hexahydrofuro[2,3-b]furan-3-yl(1S,2R)-3-[[(4-aminophenyl)sulfonyl](cyclohexyloxy)amino]-1-benzyl-2-hydroxypropylcarbamate] | ≤ 100 | < 1 | – | – |
